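96-well plates; 48 h exposure; 5 concentrations. Endpoints by linear interpolation between flanking doses. Not reached: highest tested concentration assigned. TGI: total growth inhibition.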
System: MALME-3M melanoma
Test: NCI-60 cell line screen, 48 h

Row | SMILES | TGI [µM]
1 | [N-]=[N+]=CC(=O)C1CCCN1C(=O)c1ccccc1 (stereo not drawn) | > 10
2 | CC(=O)Nc1nc(Cl)cc(NCC2(CO)CCC2)n1 | > 100
3 | O=C(COc1ccc(OCC(=O)N/N=C/c2ccc(-c3ccc(Cl)cc3Cl)o2)c(Cl)c1)N/N=C/c1ccc(-c2ccc(Cl)cc2Cl)o1 | > 100
4 | Cc1ccc2cccc(-c3cccc4ccccc34)c2n1 | > 100
5 | O=c1ccc2ccc(S)cc2o1 | > 100
6 | Cc1nc(N)c(N2CCN(C#N)CC2)c(=O)[nH]1 | > 100

System: BT-549 breast
Test: NCI-60 cell line screen, 48 h

Row | SMILES | TGI [µM]
7 | [N-]=[N+]=CC(=O)C1CCCN1C(=O)c1ccccc1 (stereo not drawn) | > 10
8 | CC(=O)Nc1nc(Cl)cc(NCC2(CO)CCC2)n1 | > 100
9 | O=C(COc1ccc(OCC(=O)N/N=C/c2ccc(-c3ccc(Cl)cc3Cl)o2)c(Cl)c1)N/N=C/c1ccc(-c2ccc(Cl)cc2Cl)o1 | > 100
10 | Cc1ccc2cccc(-c3cccc4ccccc34)c2n1 | > 100
11 | O=c1ccc2ccc(S)cc2o1 | > 100
12 | CN(O)C(=O)/C=C/c1ccc(OCc2cccc(Cl)c2)cc1 | 85.3
13 | Cc1nc(N)c(N2CCN(C#N)CC2)c(=O)[nH]1 | > 100

System: CCRF-CEM leukemia
Test: NCI-60 cell line screen, 48 h

Row | SMILES | TGI [µM]
14 | [N-]=[N+]=CC(=O)C1CCCN1C(=O)c1ccccc1 (stereo not drawn) | > 10
15 | CC(=O)Nc1nc(Cl)cc(NCC2(CO)CCC2)n1 | > 100
16 | O=C(COc1ccc(OCC(=O)N/N=C/c2ccc(-c3ccc(Cl)cc3Cl)o2)c(Cl)c1)N/N=C/c1ccc(-c2ccc(Cl)cc2Cl)o1 | 34.8
17 | Cc1ccc2cccc(-c3cccc4ccccc34)c2n1 | 50
18 | CN(O)C(=O)/C=C/c1ccc(OCc2cccc(Cl)c2)cc1 | 65.6
19 | Cc1nc(N)c(N2CCN(C#N)CC2)c(=O)[nH]1 | > 100

System: MCF7 breast
Test: NCI-60 cell line screen, 48 h

Row | SMILES | TGI [µM]
20 | [N-]=[N+]=CC(=O)C1CCCN1C(=O)c1ccccc1 (stereo not drawn) | > 10
21 | CC(=O)Nc1nc(Cl)cc(NCC2(CO)CCC2)n1 | > 100
22 | O=C(COc1ccc(OCC(=O)N/N=C/c2ccc(-c3ccc(Cl)cc3Cl)o2)c(Cl)c1)N/N=C/c1ccc(-c2ccc(Cl)cc2Cl)o1 | > 100
23 | O=c1ccc2ccc(S)cc2o1 | > 100
24 | CN(O)C(=O)/C=C/c1ccc(OCc2cccc(Cl)c2)cc1 | > 100
25 | Cc1nc(N)c(N2CCN(C#N)CC2)c(=O)[nH]1 | > 100

System: PC-3 prostate
Test: NCI-60 cell line screen, 48 h

Row | SMILES | TGI [µM]
26 | [N-]=[N+]=CC(=O)C1CCCN1C(=O)c1ccccc1 (stereo not drawn) | > 10
27 | CC(=O)Nc1nc(Cl)cc(NCC2(CO)CCC2)n1 | > 100
28 | O=C(COc1ccc(OCC(=O)N/N=C/c2ccc(-c3ccc(Cl)cc3Cl)o2)c(Cl)c1)N/N=C/c1ccc(-c2ccc(Cl)cc2Cl)o1 | > 100
29 | Cc1ccc2cccc(-c3cccc4ccccc34)c2n1 | > 100
30 | O=c1ccc2ccc(S)cc2o1 | > 100
31 | CN(O)C(=O)/C=C/c1ccc(OCc2cccc(Cl)c2)cc1 | > 100
32 | Cc1nc(N)c(N2CCN(C#N)CC2)c(=O)[nH]1 | > 100

System: UACC-257 melanoma
Test: NCI-60 cell line screen, 48 h

Row | SMILES | TGI [µM]
33 | [N-]=[N+]=CC(=O)C1CCCN1C(=O)c1ccccc1 (stereo not drawn) | > 10
34 | CC(=O)Nc1nc(Cl)cc(NCC2(CO)CCC2)n1 | > 100
35 | O=C(COc1ccc(OCC(=O)N/N=C/c2ccc(-c3ccc(Cl)cc3Cl)o2)c(Cl)c1)N/N=C/c1ccc(-c2ccc(Cl)cc2Cl)o1 | > 100
36 | Cc1ccc2cccc(-c3cccc4ccccc34)c2n1 | > 100
37 | O=c1ccc2ccc(S)cc2o1 | > 100
38 | CN(O)C(=O)/C=C/c1ccc(OCc2cccc(Cl)c2)cc1 | > 100
39 | Cc1nc(N)c(N2CCN(C#N)CC2)c(=O)[nH]1 | > 100

System: CAKI-1 renal
Test: NCI-60 cell line screen, 48 h

Row | SMILES | TGI [µM]
40 | [N-]=[N+]=CC(=O)C1CCCN1C(=O)c1ccccc1 (stereo not drawn) | > 10
41 | CC(=O)Nc1nc(Cl)cc(NCC2(CO)CCC2)n1 | > 100
42 | O=C(COc1ccc(OCC(=O)N/N=C/c2ccc(-c3ccc(Cl)cc3Cl)o2)c(Cl)c1)N/N=C/c1ccc(-c2ccc(Cl)cc2Cl)o1 | > 100
43 | Cc1ccc2cccc(-c3cccc4ccccc34)c2n1 | > 100
44 | O=c1ccc2ccc(S)cc2o1 | > 100
45 | CN(O)C(=O)/C=C/c1ccc(OCc2cccc(Cl)c2)cc1 | 62.6

System: RPMI-8226 leukemia
Test: NCI-60 cell line screen, 48 h

Row | SMILES | TGI [µM]
46 | [N-]=[N+]=CC(=O)C1CCCN1C(=O)c1ccccc1 (stereo not drawn) | > 10
47 | CC(=O)Nc1nc(Cl)cc(NCC2(CO)CCC2)n1 | > 100
48 | O=C(COc1ccc(OCC(=O)N/N=C/c2ccc(-c3ccc(Cl)cc3Cl)o2)c(Cl)c1)N/N=C/c1ccc(-c2ccc(Cl)cc2Cl)o1 | 38.4
49 | Cc1ccc2cccc(-c3cccc4ccccc34)c2n1 | 40.2
50 | O=c1ccc2ccc(S)cc2o1 | > 100
51 | CN(O)C(=O)/C=C/c1ccc(OCc2cccc(Cl)c2)cc1 | 96.9
52 | Cc1nc(N)c(N2CCN(C#N)CC2)c(=O)[nH]1 | > 100

System: A549 NSCLC
Test: NCI-60 cell line screen, 48 h

Row | SMILES | TGI [µM]
53 | [N-]=[N+]=CC(=O)C1CCCN1C(=O)c1ccccc1 (stereo not drawn) | > 10
54 | CC(=O)Nc1nc(Cl)cc(NCC2(CO)CCC2)n1 | > 100
55 | O=C(COc1ccc(OCC(=O)N/N=C/c2ccc(-c3ccc(Cl)cc3Cl)o2)c(Cl)c1)N/N=C/c1ccc(-c2ccc(Cl)cc2Cl)o1 | > 100
56 | Cc1ccc2cccc(-c3cccc4ccccc34)c2n1 | > 100
57 | O=c1ccc2ccc(S)cc2o1 | > 100
58 | CN(O)C(=O)/C=C/c1ccc(OCc2cccc(Cl)c2)cc1 | 63.5
59 | Cc1nc(N)c(N2CCN(C#N)CC2)c(=O)[nH]1 | > 100

System: MDA-N
Test: NCI-60 cell line screen, 48 h

Row | SMILES | TGI [µM]
60 | [N-]=[N+]=CC(=O)C1CCCN1C(=O)c1ccccc1 (stereo not drawn) | > 10
61 | CC(=O)Nc1nc(Cl)cc(NCC2(CO)CCC2)n1 | > 100
62 | O=C(COc1ccc(OCC(=O)N/N=C/c2ccc(-c3ccc(Cl)cc3Cl)o2)c(Cl)c1)N/N=C/c1ccc(-c2ccc(Cl)cc2Cl)o1 | > 100
63 | Cc1ccc2cccc(-c3cccc4ccccc34)c2n1 | 22.7
64 | O=c1ccc2ccc(S)cc2o1 | > 100
65 | CN(O)C(=O)/C=C/c1ccc(OCc2cccc(Cl)c2)cc1 | > 100
66 | Cc1nc(N)c(N2CCN(C#N)CC2)c(=O)[nH]1 | > 100

System: T-47D breast
Test: NCI-60 cell line screen, 48 h

Row | SMILES | TGI [µM]
67 | [N-]=[N+]=CC(=O)C1CCCN1C(=O)c1ccccc1 (stereo not drawn) | > 10
68 | CC(=O)Nc1nc(Cl)cc(NCC2(CO)CCC2)n1 | > 100
69 | O=C(COc1ccc(OCC(=O)N/N=C/c2ccc(-c3ccc(Cl)cc3Cl)o2)c(Cl)c1)N/N=C/c1ccc(-c2ccc(Cl)cc2Cl)o1 | > 100
70 | Cc1ccc2cccc(-c3cccc4ccccc34)c2n1 | > 100
71 | O=c1ccc2ccc(S)cc2o1 | > 100
72 | CN(O)C(=O)/C=C/c1ccc(OCc2cccc(Cl)c2)cc1 | 66.5
73 | Cc1nc(N)c(N2CCN(C#N)CC2)c(=O)[nH]1 | > 100

System: SN12C renal
Test: NCI-60 cell line screen, 48 h

Row | SMILES | TGI [µM]
74 | [N-]=[N+]=CC(=O)C1CCCN1C(=O)c1ccccc1 (stereo not drawn) | > 10
75 | CC(=O)Nc1nc(Cl)cc(NCC2(CO)CCC2)n1 | > 100
76 | O=C(COc1ccc(OCC(=O)N/N=C/c2ccc(-c3ccc(Cl)cc3Cl)o2)c(Cl)c1)N/N=C/c1ccc(-c2ccc(Cl)cc2Cl)o1 | > 100
77 | Cc1ccc2cccc(-c3cccc4ccccc34)c2n1 | > 100
78 | O=c1ccc2ccc(S)cc2o1 | > 100
79 | CN(O)C(=O)/C=C/c1ccc(OCc2cccc(Cl)c2)cc1 | 55.9
80 | Cc1nc(N)c(N2CCN(C#N)CC2)c(=O)[nH]1 | > 100

System: A498 renal
Test: NCI-60 cell line screen, 48 h

Row | SMILES | TGI [µM]
81 | [N-]=[N+]=CC(=O)C1CCCN1C(=O)c1ccccc1 (stereo not drawn) | > 10
82 | CC(=O)Nc1nc(Cl)cc(NCC2(CO)CCC2)n1 | > 100
83 | O=C(COc1ccc(OCC(=O)N/N=C/c2ccc(-c3ccc(Cl)cc3Cl)o2)c(Cl)c1)N/N=C/c1ccc(-c2ccc(Cl)cc2Cl)o1 | > 100
84 | Cc1ccc2cccc(-c3cccc4ccccc34)c2n1 | 46
85 | O=c1ccc2ccc(S)cc2o1 | > 100
86 | CN(O)C(=O)/C=C/c1ccc(OCc2cccc(Cl)c2)cc1 | 66
87 | Cc1nc(N)c(N2CCN(C#N)CC2)c(=O)[nH]1 | > 100

System: MDA-MB-435
Test: NCI-60 cell line screen, 48 h

Row | SMILES | TGI [µM]
88 | [N-]=[N+]=CC(=O)C1CCCN1C(=O)c1ccccc1 (stereo not drawn) | > 10
89 | CC(=O)Nc1nc(Cl)cc(NCC2(CO)CCC2)n1 | > 100
90 | O=C(COc1ccc(OCC(=O)N/N=C/c2ccc(-c3ccc(Cl)cc3Cl)o2)c(Cl)c1)N/N=C/c1ccc(-c2ccc(Cl)cc2Cl)o1 | > 100
91 | Cc1ccc2cccc(-c3cccc4ccccc34)c2n1 | 7.58
92 | O=c1ccc2ccc(S)cc2o1 | > 100
93 | CN(O)C(=O)/C=C/c1ccc(OCc2cccc(Cl)c2)cc1 | > 100
94 | Cc1nc(N)c(N2CCN(C#N)CC2)c(=O)[nH]1 | > 100

System: SK-MEL-28 melanoma
Test: NCI-60 cell line screen, 48 h

Row | SMILES | TGI [µM]
95 | [N-]=[N+]=CC(=O)C1CCCN1C(=O)c1ccccc1 (stereo not drawn) | > 10
96 | CC(=O)Nc1nc(Cl)cc(NCC2(CO)CCC2)n1 | > 100
97 | O=C(COc1ccc(OCC(=O)N/N=C/c2ccc(-c3ccc(Cl)cc3Cl)o2)c(Cl)c1)N/N=C/c1ccc(-c2ccc(Cl)cc2Cl)o1 | > 100
98 | Cc1ccc2cccc(-c3cccc4ccccc34)c2n1 | > 100

Reference: PubChem BioAssay (NCI)
